# A melting point compilation (Tetko et al.)
# Residues, ends and D or L forms follow the SMILES beside them. *: point of attachment. Boc = CC(C)(C)OC(=O)*; Bn = c1ccc(C*)cc1
row,SMILES,melting point [°C]
1,O=C(c1ccccc1)c1ccc(C(Cl)(Cl)Cl)cc1,109 to 111
2,CC(=O)OCC(COC(C)=O)NC(=O)c1c(I)c(C(=O)NC(COC(C)=O)COC(C)=O)c(I)c(N2CCC(Br)C2=O)c1I (configuration not stated),232 to 234
3,CCCCCCCCNC(=O)CO,80
4,COCCOc1ccc(/C=C(\C)C(=O)NS(=O)(=O)CC(F)(F)F)c(Oc2ncc(C(F)(F)F)cc2Cl)c1,159 to 160
5,Oc1c(Br)c(Br)c(-c2c(Br)c(Br)c(O)c(Br)c2Br)c(Br)c1Br,282
6,CCCCCCCCNc1nc(NCCCCC2CC(C)(C)N(OCC(C)(C)O)C(C)(C)C2)nc(NCCCCC2CC(C)(C)N(OCC(C)(C)O)C(C)(C)C2)n1,68 to 86
7,Ic1cc(NC2=NCCN2)cc2[nH]cnc12,180 to 181
8,CCOC(=O)C(C)c1cc(C)c(C(=O)c2ccc(Cl)cc2)n1C (configuration not stated),88 to 90
9,CCCCC1(CC)CS(=O)(=O)c2ccc(N(C)C)cc2C(c2cccc(NC(=O)COCCOCCOCC(=O)NCc3ccc(C4C(CCC(O)c5ccccc5)C(=O)N4c4ccc(F)cc4)cc3)c2)C1O (configuration not stated),120
10,CCCCCCCCCCCS(=O)(=O)c1cc2c3cc(S(=O)(=O)CCCCCCCCCCC)c(S(=O)(=O)CCCCCCCCCCC)cc3c3cc(S(=O)(=O)CCCCCCCCCCC)c(S(=O)(=O)CCCCCCCCCCC)cc3c2cc1S(=O)(=O)CCCCCCCCCCC,179 to 180
11,CCN(C(=O)OC(C)(C)C)C(=NC(=O)OC(C)(C)C)N1CCN(C(=O)[C@@H]2CCCN2S(=O)(=O)c2ccc(Cl)c(COc3cccc4ccc(C)nc34)c2Cl)CC1,95
12,CC(=O)Nc1cc(COC2OC(COC(=O)c3ccc(Cl)cc3)C(OC3OC4COC(c5ccccc5)OC4C(OC(C)=O)C3OC(C)=O)C(OC(C)=O)C2OC(C)=O)ccc1Cl (configuration not stated),114 to 115
13,CC(C)C(NC(=O)C(Cc1ccc(OCc2ccccc2)cc1)NC(=O)C(COCc1ccccc1)NC(=O)C(Cc1c[nH]c2ccccc12)NC(=O)OC(C)(C)C)C(=O)O (configuration not stated) (Boc-WS(Bn)Y(Bn)V-OH; configuration not given here),98 to 100
14,CC(C)(C)c1cc(-c2cc(C(C)(C)C)cc(C(C)(C)C)c2Op2oc3c(C(C)(C)C)cc(C(C)(C)C)cc3c3cc(C(C)(C)C)cc(C(C)(C)C)c3o2)c(O)c(C(C)(C)C)c1,245 to 250
15,CCc1nc(OC)c(NC(=O)N2CCN(c3cc(Cl)cc(Cl)c3)CC2)cc1C(=O)NC(C)C(=O)Nc1cc(CO)cc(Nc2c3ccccc3nc3ccccc23)c1 (configuration not stated),184 to 186
16,CCOC(CN1C(=O)C2=C(c3cc4cc(C(C)(C)C)cc(C(C)(C)C)c4o3)N(CC(OCC)OCC)C(=O)C2=C1c1cc2cc(C(C)(C)C)cc(C(C)(C)C)c2o1)OCC,194 to 196
17,CCO/N=C(\C)[C@H]1CC[C@H]2[C@@H]3CCC4=CC(=O)CC[C@]4(C)[C@H]3CC[C@]12C,127 to 129
18,CC(C)[C@H](NC(=O)N(C)Cc1nc2ccccc2[nH]1)C(=O)N[C@@H](Cc1ccccc1)C[C@H](O)[C@H](Cc1ccccc1)NC(=O)[C@@H](NC(=O)N(C)Cc1nc2ccccc2[nH]1)C(C)C,150 to 152
19,O=c1cc(O)cc(-c2ccc(Cl)cc2)o1,247 to 249
20,CC(C)CCCOC(=O)NCCc1nc(-c2ccc(-c3ccccc3)cc2)c[nH]1,128

# Results, then the molecule that gave them:
row,melting point [°C],SMILES
1,228 to 235,CCCCc1c(CC[Si](Cl)(Cl)Cl)c(CC[Si](Cl)(Cl)Cl)c(CC[Si](Cl)(Cl)Cl)c(CC[Si](Cl)(Cl)Cl)c1CC[Si](Cl)(Cl)Cl
2,102 to 104,Cc1ccnc2nc(SCc3ccccc3)nn12
3,150 to 152,[C-]#[N+]C(=CC=C1C=C(c2ccccc2)C=C(c2ccccc2)O1)C(=O)OCC
4,> 220,CC(C)C[C@H](NC(=O)[C@H](C)NC(=O)[C@H](C)NC(=O)OC(C)(C)C)C(=O)NCCNc1ccc(NCCNC(=O)[C@H](CC(C)C)NC(=O)[C@H](C)NC(=O)[C@H](C)NC(=O)OC(C)(C)C)c2c1C(=O)c1c(O)ccc(O)c1C2=O
5,128 to 131,CS(C)(=O)=NC(=O)c1cc(Oc2ccc(C(F)(F)F)cc2Cl)ccc1Cl
6,85 to 89,CC(C)C(NS(=O)(=O)N(C)Cc1ccccn1)C(=O)NC(Cc1ccccc1)C(O)C(O)C(Cc1ccccc1)NC(=O)C(NS(=O)(=O)N(C)Cc1ccccn1)C(C)C (configuration not stated)
7,176 to 178,CCOC(=O)c1cn(C23CC(C2)C3)c2c(F)c(F)c(F)cc2c1=O
8,301 to 306,CSc1ccc2c3c(cccc13)C(=O)N(O)C2=O
9,115 to 120,CC(C)[C@H](NC(=O)N(C)Cc1csc(NC(=O)OC(C)(C)C)n1)C(=O)N[C@@H](Cc1ccccc1)C[C@H](O)[C@H](Cc1ccccc1)NC(=O)[C@@H](NC(=O)N(C)Cc1csc(NC(=O)OC(C)(C)C)n1)C(C)C
10,181 to 182,O=S(=O)(C(/C=C/c1ccc(I)cc1)c1ccc(Cl)cc1Cl)C(/C=C/c1ccc(I)cc1)c1ccc(Cl)cc1Cl (configuration not stated)
11,54.5,C=CC(=O)OCCCCCCOc1ccc(C(=O)Oc2ccc(OC(=O)c3ccc(OCCCCCCOC(=O)C=C)cc3)c(C(=O)OCCCCCCCCOc3ccc(C#N)cc3)c2)cc1
12,132 to 135,Cc1ccc(C(=O)Oc2ccc3c(OC(=O)c4ccc(C)c(OCc5ccccc5)c4)c4ccccc4cc3c2OC(=O)c2ccc(C)c(OCc3ccccc3)c2)cc1OCc1ccccc1
13,106 to 110,COc1cc(C(=O)NC2OC(COC(C)=O)C(OC3OC(COC(C)=O)C(OC(C)=O)C(OC(C)=O)C3OC(C)=O)C(OC(C)=O)C2OC(C)=O)ccc1Cl (configuration not stated)
14,176 to 178,CCc1nc(OC)c(NC(=O)N2CCN(c3cc(C)cc(C)c3)CC2)cc1C(=O)NC(C)C(=O)Nc1cc(CO)cc(Nc2c3ccccc3nc3c(C)c(C)ccc23)c1 (configuration not stated)
15,184 to 185,O=C(CCl)Nc1nc(-c2ccco2)c(C(=O)c2ccccn2)s1
16,105,CCCCCCCCCCCCN(CCCCCCCCCCCC)c1ccc2c(c1)O/C(=C1\Oc3cc(N(CCCCCCCCCCCC)CCCCCCCCCCCC)ccc3C1=O)C2=O
17,272 to 275,C=Cc1cc(C=Cc2cc(C=Cc3cc(C(C)(C)C)cc(C(C)(C)C)c3)cc(C=Cc3cc(C(C)(C)C)cc(C(C)(C)C)c3)c2)cc(C=Cc2cc(C=Cc3cc(C(C)(C)C)cc(C(C)(C)C)c3)cc(C=Cc3cc(C(C)(C)C)cc(C(C)(C)C)c3)c2)c1
18,142 to 145,Cc1ccc(S(=O)(=O)N2CCN(S(=O)(=O)c3ccc(C)cc3)CCN(S(=O)(=O)c3ccc(C)cc3)CC(CC(C)C)N(S(=O)(=O)c3ccc(C)cc3)CCN(S(=O)(=O)c3ccc(C)cc3)CC2)cc1 (configuration not stated)
19,60 to 61,CCCCCCCCCCCCc1cc(-c2c(Cl)c(Cl)c(-c3cc(CCCCCCCCCCCC)c(Br)s3)c3nsnc23)sc1Br
20,180 to 182,CCC(C)C1NC(=O)C(CC(C)C)NC(=O)C2CCCN2C(=O)C(C(C)C)NC(=O)C(Cc2ccc(O)cc2)NC(=O)C2CCCN2C(=O)C2CCCN2C(=O)C(C(C)CC)NC1=O (configuration not stated) (cyclo(IIPPYVPL); configuration not given here)
21,233 to 237,Cc1cc(F)c(-n2nc(C(F)(F)F)nc2NC(=O)C(F)(F)F)cc1C(S(=O)C(c1cc(-n2nc(C(F)(F)F)nc2NC(=O)C(F)(F)F)c(F)cc1C)C(F)(F)F)C(F)(F)F (configuration not stated)
22,178 to 179,CC(C)[C@H](NC(=O)N1CCN(Cc2ccccc2)CC1)C(=O)N[C@@H](Cc1ccccc1)[C@@H](O)[C@H](O)[C@H](Cc1ccccc1)NC(=O)[C@@H](NC(=O)N1CCN(Cc2ccccc2)CC1)C(C)C
